Results published in patent publication US11643782B2, “Method for controlling growth of microorganisms and/or biofilms in an industrial process” (Kemira Oyj, priority 2017, dated 2023).

Key:
Assay type in all cases: cell-based
[1] = test system: Meiothermus silvanus biofilms; assay: Prevention of biofilm formation (96-microwell peg-lid plates, Crystal Violet staining); conditions: for Biofilm quantity, Abs. at 595 nm / Biofilm reduction: 48 h contact time
Excerpt: (§1) Pure cultures of Meiothermus silvanus, a microbe species commonly found in paper machine biofilms (Ekman J, Journal of Industrial Microbiology & Biotechnology 34:203-211) and Pseudoxanthomonas taiwanensis, another species commonly found in paper machine environments (Desjardins, E & Beaulieu, C, Journal of Industrial Microbiology & Biotechnology 30:141-145) were used to study the efficacy of various chemicals to prevent biofilm formation.
(§2) Biofilm tests were done in either synthetic commercial R2-broth (Lab M Ltd, UK) or fibre-containing synthetic paper machine water, SPW (prepared according to Peltola, et al., J. Ind. Microbiol. Biotechnol. 2011, 38: 1719-1727) using 96-microwell plate wells with peg lids (Thermo Fischer Scientific Inc., USA). Plates were incubated at 45° C. with a rotary shaking (150 rpm) providing high flow in each well.
(§3) For experiments of preventing biofilm formation wells of 96-microwell plates with peg-lids were filled with R2-broth or SPW, inoculated with the pure bacterial cultures and treated with different amounts of chemical compounds to be tested. Peg-lid was put on. After 24 hours the wells were emptied and a fresh solution of pure culture containing SPW or R2 broth with different amounts of test chemicals were added to the wells and the original peg-lid was put back in place. After an additional 24 hours, i.e. 48 hours after starting the test, the wells were emptied, rinsed and the peg lid and wells were left to dry.
(§4) The amount of biofilm formed on the microwells and peg surfaces was quantified with a staining solution by adding 200 μl of 1% Crystal Violet (Merck Millipore KGaA, Germany) in methanol to each well and placing the peg-lid back on. After 3 minutes the wells were emptied and the wells and pegs were rinsed 3 times with tap water. The attached Crystal Violet was dissolved into ethanol and the absorbance at 595 nm was measured. The values shown in the following tables are average absorbance from 8 replicate wells and pegs.
(§5) All absorbance values in Examples 1-8 are given actual measured values. In calculation for biofilm reduction percentages it was taken in account that the SPW alone for 2 days without any bacterial inoculum gave a background value of 0.14.

[2] = test system: Pseudoxanthomonas taiwanensis biofilms; assay: as above; conditions: for Biofilm quantity, Abs. at 595 nm / Biofilm reduction / Biofilm quantity, Abs at 595 nm: 48 h contact time
Excerpt: as §1, §2, §3, §4, §5

[3] = test system: Meiothermus silvanus biofilms; assay: Removal of existing (preformed) biofilm (96-microwell peg-lid plates, Crystal Violet staining); conditions: for Biofilm quantity, Abs. at 595 nm / Biofilm reduction: SPW, 45° C., 150 rpm, 24 h pre-growth and 24 h contact time
Excerpt: as §1, §2
(§6) For experiments of removing already existing (preformed) biofilm wells of 96-microwell plates with peg-lids were filled with SPW, inoculated with the pure bacterial cultures. Biofilm was grown for 24 hours without addition of any chemical compound to be tested. In some experiments after 24 hours the procedure was repeated by emptying the wells and by addition of a fresh solution of SPW inoculated with pure bacterial culture, again without any test chemical compound. The original peg-lid was put back in place and biofilm was allowed to grow for additional 24 h, i.e. in total 48 h.
(§7) After 24 or 48 hours after starting the test, the wells were emptied and a fresh solution of SPW, inoculated with the pure bacterial cultures and with different amounts of chemical compounds to be tested were added and the original peg-lid was placed back in place. After an additional 2 or 24 hours the wells were emptied, rinsed and the peg lid and wells were left to dry.
as §4, §5

[4] = test system: Pseudoxanthomonas taiwanensis biofilms; assay: as above; conditions: for Biofilm quantity, Abs. at 595 nm / Biofilm reduction: SPW, 45° C., 150 rpm, 24 h pre-growth and 24 h contact time; for Removal of already formed biofilms (in words): synthetic paper machine water, high temperature, fibres present, high flow
Excerpt: as §1, §2, §6, §7, §4, §5

[5] = active compound, synthetic paper machine water, high temperature, fibres present, high flow
[6] = dosage 0.2 mg/l active ingredient, SPW, 45° C., 150 rpm
[7] = dosage 0.6 mg/l active ingredient, SPW, 45° C., 150 rpm
[8] = dosage 1 mg/l active ingredient, SPW, 45° C., 150 rpm
[9] = dosage 0.2 mg/l active compound
[10] = dosage 0.6 mg/l active compound
[11] = Table 6, dosage 0.06 mg/l active compound, SPW, 45° C., 150 rpm
[12] = Table 6, dosage 0.2 mg/l active compound, SPW, 45° C., 150 rpm
[13] = Table 5, dosage 0.06 mg/l active compound, SPW, 45° C., 150 rpm
[14] = Table 5, dosage 0.2 mg/l active compound, SPW, 45° C., 150 rpm
[15] = Table 9, dosage 0.2 mg/l active compound
[16] = Table 9, dosage 0.4 mg/l active compound
[17] = Table 7, dosage 0.2 mg/l active compound
[18] = Table 7, dosage 0.6 mg/l active compound

For `N#CC(Br)(Br)C(N)=O` [DBNPA, 2,2-dibromo-3-nitrilopropionamide], the “Dosage required to reach acceptable or noticable biofilm reduction efficacy” value [1, 5] was 1 mg/I, the “Biofilm quantity, Abs. at 595 nm” value [1, 6] was 0.57 and the Biofilm reduction [1, 6] was 16.9%. For the same compound, the “Biofilm quantity, Abs. at 595 nm” value [1, 7] was 0.35, the Biofilm reduction [1, 7] was 60.7% and the “Biofilm quantity, Abs. at 595 nm” value [1, 8] was 0.15. The Biofilm reduction [1, 8] was 98.8%, the “Dosage required to reach acceptable or noticable biofilm reduction efficacy” value [2, 5] was 1 mg/I and the “Biofilm quantity, Abs. at 595 nm” value [2, 6] was 1.46. The Biofilm reduction [2, 6] was 12.6%, the “Biofilm quantity, Abs. at 595 nm” value [2, 7] was 1.23 and the Biofilm reduction [2, 7] was 27.8%. For the same compound, the “Biofilm quantity, Abs. at 595 nm” value [2, 8] was 0.14 and the Biofilm reduction [2, 8] was 99.9%.

In the case of `COc1ccc(S(=O)(=O)/C=C/C#N)cc1` [Compound F, (2E)-3-[(4-methoxyphenyl)sulphonyl]-2-propenenitrile], the “Biofilm quantity, Abs. at 595 nm” value [3, 9] is reported as 1.21, the Biofilm reduction [3, 9] is reported as 6.4% and the “Biofilm quantity, Abs. at 595 nm” value [3, 10] is reported as 0.86. For the same compound, the Biofilm reduction [3, 10] was 37.3% and the “Removal of already formed biofilms (in words)” value (“Removal” below) ([3]; synthetic paper machine water, high temperature, fibres present, high flow) was “remove already formed biofilms”.

With `N#C/C=C/S(=O)(=O)c1ccc(C(F)(F)F)cc1` [Compound E, (2E)-3-[(4-trifluormethylphenyl)sulphonyl]-2-propenenitrile] the “Biofilm quantity, Abs. at 595 nm” value [1, 11] was 1.43, the Biofilm reduction [1, 11] was 38.8% and the “Biofilm quantity, Abs. at 595 nm” value [1, 12] was 0.14. For the same compound, the Biofilm reduction [1, 12] was 99.6%.

In the case of Gramicidin, the “Biofilm quantity, Abs. at 595 nm” value ([1]; dosage 0.2 mg/l, R2-broth) is reported as 1.40, the Biofilm reduction ([1]; dosage 0.2 mg/l, R2-broth) is reported as 13.7% and the “Biofilm quantity, Abs. at 595 nm” value ([1]; dosage 0.2 mg/l, SPW) is reported as 1.33. For the same compound, the Biofilm reduction ([1]; dosage 0.2 mg/l, SPW) was 2.5%, the “Biofilm quantity, Abs. at 595 nm” value ([1]; dosage 1 mg/l, R2-broth) was 0.66 and the Biofilm reduction ([1]; dosage 1 mg/l, R2-broth) was 64.4%. The “Biofilm quantity, Abs. at 595 nm” value ([1]; dosage 1 mg/l, SPW) was 1.41, the Biofilm reduction ([1]; dosage 1 mg/l, SPW) was −4.1% and the “Biofilm quantity, Abs. at 595 nm” value ([1]; dosage 3 mg/l, R2-broth) was 0.17. For the same compound, the Biofilm reduction ([1]; dosage 3 mg/l, R2-broth) was 97.9%, the “Biofilm quantity, Abs. at 595 nm” value ([1]; dosage 3 mg/l, SPW) was 0.45 and the Biofilm reduction ([1]; dosage 3 mg/l, SPW) was 74.6%. For the same compound, the “Biofilm quantity, Abs. at 595 nm” value ([1]; dosage 10 mg/l, R2-broth) was 0.14, the Biofilm reduction ([1]; dosage 10 mg/l, R2-broth) was 100.0% and the “Biofilm quantity, Abs. at 595 nm” value ([1]; dosage 10 mg/l, SPW) was 0.19. The Biofilm reduction ([1]; dosage 10 mg/l, SPW) was 95.9%, the “Biofilm quantity, Abs. at 595 nm” value ([2]; dosage 3 mg/l, R2-broth) was 2.80 and the Biofilm reduction ([2]; dosage 3 mg/l, R2-broth) was −0.8%. For the same compound, the “Biofilm quantity, Abs at 595 nm” value ([2]; dosage 3 mg/l, SPW) was 2.25, the Biofilm reduction ([2]; dosage 3 mg/l, SPW) was 5.4% and the “Biofilm quantity, Abs. at 595 nm” value ([2]; dosage 10 mg/l, R2-broth) was 2.55. The Biofilm reduction ([2]; dosage 10 mg/l, R2-broth) was 8.7%, the “Biofilm quantity, Abs at 595 nm” value ([2]; dosage 10 mg/l, SPW) was 2.41 and the Biofilm reduction ([2]; dosage 10 mg/l, SPW) was −1.8%. The “Biofilm quantity, Abs. at 595 nm” value ([2]; dosage 25 mg/l, R2-broth) was 0.19, the Biofilm reduction ([2]; dosage 25 mg/l, R2-broth) was 98.1% and the “Biofilm quantity, Abs at 595 nm” value ([2]; dosage 25 mg/l, SPW) was 2.42. For the same compound, the Biofilm reduction ([2]; dosage 25 mg/l, SPW) was −2.2%.

`N#C/C=C/S(=O)(=O)c1ccccc1` [Compound C, (2E)-3-phenylsulphonyl-2-propenenitrile] was tested, and the “Biofilm quantity, Abs. at 595 nm” value [1, 13] was 0.64, the Biofilm reduction [1, 13] was 29.7% and the “Biofilm quantity, Abs. at 595 nm” value [1, 14] was 0.15. The Biofilm reduction [1, 14] was 98.2%, the “Biofilm quantity, Abs. at 595 nm” value [4, 15] was 0.15 and the Biofilm reduction [4, 15] was 98.5%. The “Biofilm quantity, Abs. at 595 nm” value [4, 16] was 0.15, the Biofilm reduction [4, 16] was 99.0% and the “Removal” value [4] was “remove already formed biofilms”.

`Cc1cc(C)c(S(=O)(=O)/C=C/C#N)c(C)c1` [Compound D, (2E)-3-[(2,4,6-trimethylphenyl)sulphonyl]-2-propenenitrile] was tested, and the “Biofilm quantity, Abs. at 595 nm” value [4, 17] was 2.07, the Biofilm reduction [4, 17] was 8.4% and the “Biofilm quantity, Abs. at 595 nm” value [4, 18] was 0.18. The Biofilm reduction [4, 18] was 97.9% and the “Removal” value [4] was “remove already formed biofilms”.
